Experimental data published in ChEMBL document CHEMBL5696441 (Nat Chem Biol, 2011).
Activity calls are given as the source filed them. The calls are words filed in the database; no cut-off is given here.

Assays:
[1] = target: Tyrosine-protein kinase Yes (Homo sapiens) (UniProt P07947); assay: Inhibition of YES (unknown origin) assessed as remaining activity at 1 uM by Kinome scan method relative to control
[2] = target: T1, Serine/threonine-protein kinase Nek2 (Homo sapiens) (UniProt P51955); assay: Inhibition of human NEK2 assessed as residual activity at 1 uM using RB-CTF as substrate in presence of 33P-ATP by ProQinase assay relative to control
T1 sequence (whole entry): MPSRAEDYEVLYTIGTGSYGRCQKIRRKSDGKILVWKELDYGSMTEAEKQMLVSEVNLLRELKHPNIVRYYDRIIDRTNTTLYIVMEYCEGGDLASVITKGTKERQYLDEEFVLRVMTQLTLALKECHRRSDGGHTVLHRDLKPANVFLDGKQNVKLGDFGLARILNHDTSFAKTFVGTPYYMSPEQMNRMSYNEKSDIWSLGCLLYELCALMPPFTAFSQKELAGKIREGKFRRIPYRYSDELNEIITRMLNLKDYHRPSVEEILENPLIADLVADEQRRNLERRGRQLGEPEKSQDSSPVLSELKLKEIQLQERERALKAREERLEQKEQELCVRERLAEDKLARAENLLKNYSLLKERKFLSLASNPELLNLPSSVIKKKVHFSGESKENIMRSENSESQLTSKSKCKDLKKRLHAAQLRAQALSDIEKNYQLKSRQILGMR

[3] = tested on: Tyrosine-protein kinase ABL1 (Homo sapiens), P00519 [F317I]; assay: Inhibition of human ABL1 F317I mutant assessed as residual activity at 1 uM using Poly(Ala,Glu,Lys,Tyr)6:2:5:1 as substrate in presence of 33P-ATP by ProQinase assay relative to control
[4] = target: Serine/threonine-protein kinase PAK 2 (Homo sapiens) (UniProt Q13177); assay: Inhibition of PAK2 (unknown origin) assessed as remaining activity at 1 uM by Kinome scan method relative to control
PBMC = assay: Anti-inflammatory activity against human derived high respond PBMC cells assessed as increase in stimulated IL-12p70 cytokine release at 1 uM incubated for 2 hrs in the presence of LPS/SEB/aCD28 by Luminex based sandwich immunoassay; type: functional, cell-based
[5] = Anti-inflammatory activity against human derived medium respond PBMC cells assessed as inhibition in stimulated IL-6 cytokine release incubated for 2 hrs in the presence of LPS/SEB/aCD28 by Luminex based sandwich immunoassay; type: functional, cell-based
[6] = Anti-inflammatory activity against human derived high respond PBMC cells assessed as inhibition in stimulated IL-17A cytokine release incubated for 2 hrs in the presence of LPS/SEB/aCD28 by Luminex based sandwich immunoassay; type: functional, cell-based
[7] = target: Dual serine/threonine and tyrosine protein kinase (Homo sapiens) (UniProt Q6XUX3); assay: Inhibition of human RIPK5 assessed as residual activity at 1 uM using RBER-CHKtide as substrate in presence of 33P-ATP by ProQinase assay relative to control
[8] = tested on: Epidermal growth factor receptor (Homo sapiens), P00533 [L858R]; assay: Inhibition of EGFR L858R mutant (unknown origin) assessed as remaining activity at 1 uM by Kinome scan method relative to control
[9] = target: Platelet-derived growth factor receptor alpha (Homo sapiens) (UniProt P16234); assay: Inhibition of PDGFRalpha (unknown origin) assessed as remaining activity at 1 uM by Kinome scan method relative to control
[10] = tested on: Proto-oncogene tyrosine-protein kinase receptor Ret (Homo sapiens), P07949 [Y791F]; assay: Inhibition of human RET Y791F mutant assessed as residual activity at 1 uM using polyEY as substrate in presence of 33P-ATP by ProQinase assay relative to control
[11] = target: Mitogen-activated protein kinase kinase kinase 10 (Homo sapiens) (UniProt Q02779); assay: Inhibition of human MAP3K10 assessed as residual activity at 1 uM using histon H2B as substrate in presence of 33P-ATP by ProQinase assay relative to control
[12] = target: Ribosomal protein S6 kinase alpha-5 (Homo sapiens) (UniProt O75582); assay: Inhibition of N-terminal kinase domain RPS6KA5 (unknown origin) assessed as remaining activity at 1 uM by Kinome scan method relative to control
[13] = target: Calcium/calmodulin-dependent protein kinase kinase 2 (Homo sapiens) (UniProt Q96RR4); assay: Inhibition of human CAMKK2 assessed as residual activity at 1 uM using RBER-GSK3 as substrate in presence of 33P-ATP by ProQinase assay relative to control
[14] = Anti-inflammatory activity against human derived medium respond PBMC cells assessed as inhibition in stimulated IL-4 cytokine release incubated for 2 hrs in the presence of LPS/SEB/aCD28 by Luminex based sandwich immunoassay; type: functional, cell-based
[15] = target: Proto-oncogene tyrosine-protein kinase receptor Ret (Homo sapiens) (UniProt P07949); assay: Inhibition of RET (unknown origin) assessed as remaining activity at 1 uM by Kinome scan method relative to control
[16] = target: Cyclin-dependent kinase-like 2 (Homo sapiens) (UniProt Q92772); assay: Inhibition of CDKL2 (unknown origin) assessed as remaining activity at 1 uM by Kinome scan method relative to control
[17] = target: Dual specificity protein kinase CLK1 (Homo sapiens) (UniProt P49759); assay: Inhibition of human CLK1 assessed as residual activity at 1 uM using autophos as substrate in presence of 33P-ATP by ProQinase assay relative to control
[18] = target: Ephrin type-B receptor 2 (Homo sapiens) (UniProt P29323); assay: Inhibition of EPHB2 (unknown origin) assessed as remaining activity at 1 uM by Kinome scan method relative to control
[19] = target: Protein kinase C epsilon type (Homo sapiens) (UniProt Q02156); assay: Inhibition of human PKCepsilon assessed as residual activity at 1 uM using 3xChocktide-PKC(19-31) as substrate in presence of 33P-ATP by ProQinase assay relative to control
[20] = target: Glycogen synthase kinase-3 alpha (Homo sapiens) (UniProt P49840); assay: Inhibition of GSK3alpha (unknown origin) assessed as remaining activity at 1 uM by Kinome scan method relative to control
[21] = target: Tyrosine-protein kinase Fyn (Homo sapiens) (UniProt P06241); assay: Inhibition of human FYN assessed as residual activity at 1 uM using polyEY as substrate in presence of 33P-ATP by ProQinase assay relative to control
[22] = tested on: Epidermal growth factor receptor (Homo sapiens), P00533 [UNDEFINED MUTATION]; assay: Inhibition of EGFR E746-A750del mutant (unknown origin) assessed as remaining activity at 1 uM by Kinome scan method relative to control
[23] = target: Rho-associated protein kinase 1 (Homo sapiens) (UniProt Q13464); assay: Inhibition of human ROCK1 assessed as residual activity at 1 uM using 3xChocktide-PKC(19-31) as substrate in presence of 33P-ATP by ProQinase assay relative to control
[24] = target: Wee1-like protein kinase 2 (Homo sapiens) (UniProt P0C1S8); assay: Inhibition of WEE2 (unknown origin) assessed as remaining activity at 1 uM by Kinome scan method relative to control

Ephrin type-B receptor 2 (Homo sapiens), sequence (P29323 whole entry): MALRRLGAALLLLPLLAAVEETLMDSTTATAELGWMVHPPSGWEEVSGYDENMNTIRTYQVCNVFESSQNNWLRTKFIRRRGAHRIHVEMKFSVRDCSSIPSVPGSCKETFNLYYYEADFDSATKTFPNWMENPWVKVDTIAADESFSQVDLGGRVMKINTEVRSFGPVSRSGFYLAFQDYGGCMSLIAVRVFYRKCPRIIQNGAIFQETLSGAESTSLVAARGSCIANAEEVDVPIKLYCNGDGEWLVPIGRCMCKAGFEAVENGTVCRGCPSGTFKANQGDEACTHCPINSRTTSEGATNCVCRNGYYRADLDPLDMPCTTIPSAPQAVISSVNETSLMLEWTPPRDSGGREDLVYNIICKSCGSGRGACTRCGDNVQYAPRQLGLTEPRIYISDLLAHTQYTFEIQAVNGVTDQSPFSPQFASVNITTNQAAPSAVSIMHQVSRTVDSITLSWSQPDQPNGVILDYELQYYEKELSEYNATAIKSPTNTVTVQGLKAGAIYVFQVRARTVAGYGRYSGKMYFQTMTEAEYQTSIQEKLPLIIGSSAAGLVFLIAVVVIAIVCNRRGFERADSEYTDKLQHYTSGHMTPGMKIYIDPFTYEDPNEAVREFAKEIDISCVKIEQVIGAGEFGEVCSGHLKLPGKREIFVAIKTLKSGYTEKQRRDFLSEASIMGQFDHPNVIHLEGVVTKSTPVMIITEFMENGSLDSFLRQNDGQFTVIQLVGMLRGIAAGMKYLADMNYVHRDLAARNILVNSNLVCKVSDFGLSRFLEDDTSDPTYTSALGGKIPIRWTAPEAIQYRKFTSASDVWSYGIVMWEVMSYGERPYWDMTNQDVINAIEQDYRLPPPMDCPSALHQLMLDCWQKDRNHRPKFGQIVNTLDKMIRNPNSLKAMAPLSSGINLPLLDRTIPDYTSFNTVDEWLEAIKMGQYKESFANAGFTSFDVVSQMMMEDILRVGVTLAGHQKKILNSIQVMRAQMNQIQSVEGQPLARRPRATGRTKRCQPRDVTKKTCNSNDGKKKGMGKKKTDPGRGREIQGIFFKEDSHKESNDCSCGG
Proto-oncogene tyrosine-protein kinase receptor Ret (Homo sapiens), P07949 [Y791F], sequence (P07949 whole entry Y791F): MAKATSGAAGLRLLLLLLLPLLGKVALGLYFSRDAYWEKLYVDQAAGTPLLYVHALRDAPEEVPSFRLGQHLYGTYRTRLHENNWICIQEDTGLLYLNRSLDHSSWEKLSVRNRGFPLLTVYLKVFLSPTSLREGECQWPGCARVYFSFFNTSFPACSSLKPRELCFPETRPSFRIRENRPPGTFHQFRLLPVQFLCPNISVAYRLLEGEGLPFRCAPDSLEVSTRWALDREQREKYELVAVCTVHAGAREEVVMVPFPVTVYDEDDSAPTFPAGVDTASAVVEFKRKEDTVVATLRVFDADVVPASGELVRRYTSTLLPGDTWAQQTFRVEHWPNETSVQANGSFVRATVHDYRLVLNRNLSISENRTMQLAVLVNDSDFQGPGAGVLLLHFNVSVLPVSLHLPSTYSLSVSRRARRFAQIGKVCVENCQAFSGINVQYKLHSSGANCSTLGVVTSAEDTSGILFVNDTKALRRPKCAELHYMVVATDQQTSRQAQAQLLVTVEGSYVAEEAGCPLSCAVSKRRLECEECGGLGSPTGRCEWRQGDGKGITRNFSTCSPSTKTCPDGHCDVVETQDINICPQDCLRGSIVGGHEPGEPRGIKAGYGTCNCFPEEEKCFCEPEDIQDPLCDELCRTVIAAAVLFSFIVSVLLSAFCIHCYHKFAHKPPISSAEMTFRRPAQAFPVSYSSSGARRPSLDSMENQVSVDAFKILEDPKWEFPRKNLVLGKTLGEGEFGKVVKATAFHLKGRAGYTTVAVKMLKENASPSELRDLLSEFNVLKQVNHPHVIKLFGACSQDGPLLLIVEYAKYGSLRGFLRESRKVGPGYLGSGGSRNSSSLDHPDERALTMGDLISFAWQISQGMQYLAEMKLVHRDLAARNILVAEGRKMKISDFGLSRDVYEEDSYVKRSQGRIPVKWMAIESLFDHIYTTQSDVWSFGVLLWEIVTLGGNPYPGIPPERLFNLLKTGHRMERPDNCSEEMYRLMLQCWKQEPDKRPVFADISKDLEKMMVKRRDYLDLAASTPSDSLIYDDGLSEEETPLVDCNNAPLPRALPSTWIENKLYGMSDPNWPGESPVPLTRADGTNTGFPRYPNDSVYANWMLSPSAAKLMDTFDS
Dual specificity protein kinase CLK1 (Homo sapiens), sequence (P49759 whole entry, looked up): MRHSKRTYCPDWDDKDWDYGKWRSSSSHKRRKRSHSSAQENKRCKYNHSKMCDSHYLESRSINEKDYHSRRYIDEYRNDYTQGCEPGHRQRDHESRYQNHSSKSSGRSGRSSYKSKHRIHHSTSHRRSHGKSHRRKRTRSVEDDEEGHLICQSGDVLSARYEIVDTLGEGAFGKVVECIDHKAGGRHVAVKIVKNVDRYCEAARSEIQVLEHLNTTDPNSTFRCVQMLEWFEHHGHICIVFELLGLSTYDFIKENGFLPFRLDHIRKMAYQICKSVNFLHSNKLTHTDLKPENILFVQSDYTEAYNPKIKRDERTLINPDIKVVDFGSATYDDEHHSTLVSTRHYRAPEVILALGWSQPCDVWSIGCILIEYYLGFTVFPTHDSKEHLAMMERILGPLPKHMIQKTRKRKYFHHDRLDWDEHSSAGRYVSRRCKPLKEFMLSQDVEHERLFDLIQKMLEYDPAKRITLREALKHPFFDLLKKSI
Glycogen synthase kinase-3 alpha (Homo sapiens), sequence (P49840 2-483 limits assumed): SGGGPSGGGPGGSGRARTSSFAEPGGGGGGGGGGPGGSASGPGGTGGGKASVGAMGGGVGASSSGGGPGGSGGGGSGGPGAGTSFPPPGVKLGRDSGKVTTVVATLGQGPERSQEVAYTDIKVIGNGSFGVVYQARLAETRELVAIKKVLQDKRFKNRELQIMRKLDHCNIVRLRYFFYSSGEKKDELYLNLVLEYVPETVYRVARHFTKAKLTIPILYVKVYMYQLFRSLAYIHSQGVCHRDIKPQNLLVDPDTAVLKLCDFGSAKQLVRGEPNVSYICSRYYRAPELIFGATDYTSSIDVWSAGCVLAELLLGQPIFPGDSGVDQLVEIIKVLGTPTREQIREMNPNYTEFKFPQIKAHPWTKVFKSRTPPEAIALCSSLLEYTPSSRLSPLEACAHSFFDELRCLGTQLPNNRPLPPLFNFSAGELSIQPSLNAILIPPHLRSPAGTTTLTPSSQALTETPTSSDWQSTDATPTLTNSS
Tyrosine-protein kinase ABL1 (Homo sapiens), P00519 [F317I], sequence (P00519 whole entry F317I): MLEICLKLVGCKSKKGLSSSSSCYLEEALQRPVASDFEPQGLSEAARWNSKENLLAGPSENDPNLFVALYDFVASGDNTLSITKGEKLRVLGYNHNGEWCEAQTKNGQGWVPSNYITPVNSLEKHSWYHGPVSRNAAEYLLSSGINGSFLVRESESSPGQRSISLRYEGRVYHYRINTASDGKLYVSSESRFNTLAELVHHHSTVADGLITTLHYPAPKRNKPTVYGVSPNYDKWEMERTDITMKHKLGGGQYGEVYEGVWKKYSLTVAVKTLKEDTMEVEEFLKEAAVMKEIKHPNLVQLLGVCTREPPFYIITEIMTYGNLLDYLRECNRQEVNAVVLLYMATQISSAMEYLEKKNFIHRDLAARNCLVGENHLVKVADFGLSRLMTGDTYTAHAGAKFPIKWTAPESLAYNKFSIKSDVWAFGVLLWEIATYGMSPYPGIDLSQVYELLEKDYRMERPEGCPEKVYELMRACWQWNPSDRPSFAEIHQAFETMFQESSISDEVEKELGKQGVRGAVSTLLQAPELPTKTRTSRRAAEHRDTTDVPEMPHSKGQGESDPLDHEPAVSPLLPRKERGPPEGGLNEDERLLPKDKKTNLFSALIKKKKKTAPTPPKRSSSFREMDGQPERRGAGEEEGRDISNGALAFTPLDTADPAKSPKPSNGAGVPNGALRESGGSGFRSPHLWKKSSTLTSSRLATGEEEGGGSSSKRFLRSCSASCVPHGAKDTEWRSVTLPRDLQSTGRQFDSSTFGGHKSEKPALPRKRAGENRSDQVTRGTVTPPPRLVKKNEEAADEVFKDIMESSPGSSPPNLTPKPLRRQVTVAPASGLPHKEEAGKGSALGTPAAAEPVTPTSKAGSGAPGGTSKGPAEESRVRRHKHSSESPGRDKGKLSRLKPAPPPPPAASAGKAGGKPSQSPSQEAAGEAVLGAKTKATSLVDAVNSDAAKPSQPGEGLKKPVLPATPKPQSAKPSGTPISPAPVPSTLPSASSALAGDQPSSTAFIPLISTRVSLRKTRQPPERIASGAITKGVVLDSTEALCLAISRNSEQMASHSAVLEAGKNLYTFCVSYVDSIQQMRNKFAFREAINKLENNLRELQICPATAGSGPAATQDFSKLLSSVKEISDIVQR
Tyrosine-protein kinase Fyn (Homo sapiens), sequence (P06241 2-537 limits assumed): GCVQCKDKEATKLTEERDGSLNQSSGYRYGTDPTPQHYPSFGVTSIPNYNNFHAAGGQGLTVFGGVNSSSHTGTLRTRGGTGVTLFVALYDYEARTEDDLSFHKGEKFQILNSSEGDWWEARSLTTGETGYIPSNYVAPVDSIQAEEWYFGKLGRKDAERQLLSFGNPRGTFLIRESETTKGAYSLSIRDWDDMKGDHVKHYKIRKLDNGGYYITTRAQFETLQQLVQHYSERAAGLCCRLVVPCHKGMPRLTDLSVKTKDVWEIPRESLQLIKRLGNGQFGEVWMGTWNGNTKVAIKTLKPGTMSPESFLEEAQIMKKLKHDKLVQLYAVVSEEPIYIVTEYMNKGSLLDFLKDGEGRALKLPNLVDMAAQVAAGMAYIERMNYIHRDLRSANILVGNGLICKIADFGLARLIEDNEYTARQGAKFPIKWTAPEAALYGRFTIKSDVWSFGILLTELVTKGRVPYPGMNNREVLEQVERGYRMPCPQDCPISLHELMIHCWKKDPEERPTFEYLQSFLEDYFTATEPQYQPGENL
Proto-oncogene tyrosine-protein kinase receptor Ret (Homo sapiens), sequence (P07949 whole entry): as the sequence (P07949 whole entry Y791F) above, with F791Y counted along it

O=C1c2ccc(Nc3ccc(F)cc3F)cc2CCc2ccc(OC[C@H](O)CO)cc21 [Skepinone-L] gave an Activity [1] of 97%, an Activity [2] of 85% and an Activity [3] of 102%. For the same compound, the Activity [4] was 100%, the Activity (PBMC) was “Active” and the IC50 [5] was 780 nM. The IC50 [6] was 420 nM, the Activity [7] was 95% and the Activity [8] was 93%. For the same compound, the Activity [9] was 100%, the Activity [10] was 141% and the Activity [11] was 101%. For the same compound, the Activity [12] was 95%, the Activity [13] was 97% and the IC50 [14] was “Not Active”. It also gave an Activity [15] of 97%, an Activity [16] of 100% and an Activity [17] of 106%. For the same compound, the Activity [18] was 97%, the Activity [19] was 99% and the Activity [20] was 100%. For the same compound, the Activity [21] was 124%, the Activity [22] was 72% and the Activity [23] was 97%. For the same compound, the Activity [24] was 90%.
